Assay results taken from patent US7977308B2, “Lys-Thr dipeptides and their use” (Sederma, priority 2005, dated 2011).
Where no end group is shown, it is not given here. The star is where a group is joined. Palmitoyl = CCCCCCCCCCCCCCCC(=O)*

How the values were obtained:
Format in all cases: cell-based
[1] = system: Normal Human Dermal Fibroblasts (NHDF); assay: Survival estimated on cell layer using fluorescent probe Hoescht 33258; details: for cell proliferation / number of cells: after 3 days of culture
Experimental: (§1) Normal Human Dermal Fibroblasts (NHDF) were cultivated in culture plates in an appropriate culture medium (i.e. complete DMEM with fetal calf serum). After cell anchorage, cell layers (n=5 replicates) were rinsed with saline buffer and contact with molecules to be tested were performed in a complete DMEM without fetal calf serum. This medium contained ascorbate (sodium salt) and beta-aminopropionitrile, monofumarate. Two independent experimentations were performed for each di-peptide.
(§2) After 3 days of incubation, supernatants were collected and frozen. Survival was estimated on cell layer using the fluorescent probe Hoescht 33258. Collagen I was estimated using an original direct ELISA method. Fibronectin was estimated using ELISA commercial kit.

[2] = system: Normal Human Dermal Fibroblasts (NHDF); assay: Quantification of Collagen I synthesis using human dermal fibroblasts (direct ELISA); details: 3 days of incubation
Experimental: (§3) Products were tested from 0.5 to 4 ppm depending of their solubility or toxicity. Pal-KTTKS was tested from 2 to 8 ppm.
(§4) Pal KTTKS (Lys-Thr-Thr-Lys-Ser), Pal KT (Lys-Thr), Pal KS (Lys-Ser) were prepared in Sederma Peptide Synthesis Laboratory. TGF-betal: 10^E-6%, was the positive control for collagen I and Fibronectin studies.
(§5) For this study, di-peptides were linked to the Palmitoic acid and were compared to Pal-KTTKS.
as §1, §2
(§6) Criteria: TGF-b1 should be promoter of Collagen I and Fibronectin synthesis. Statistical analysis were performed on Collagen I data (n=5/assay) or Fibronectin data (n=5/assay). Results obtained with molecules were compared to negative control. All data were ng/10^E6 cells. A Student t test for non paired values was used; significativity was obtained if p<0.05 or p<0.01.
(§7) The percents in the tables above were calculated from ng/10E6 data and compared to the negative control.

[3] = system: Normal Human Dermal Fibroblasts (NHDF); assay: Quantification of Fibronectin synthesis using human dermal fibroblasts (ELISA commercial kit); details: 3 days of incubation
Experimental: as §3, §4, §5, §1, §2, §6, §7

**Q.** How did the “toxicity on the cell layer” value ([1]; 4 ppm) turn out when `CCCCCCCCCCCCCCCC(=O)N[C@@H](CCCCN)C(=O)N[C@@H](CO)C(=O)O` [Pal KS] was run?
**A.** seemed to induce a light toxicity

**Q.** For “Pal KTTKS: Palmitoyl Lys-Thr-Thr-Lys-Ser, considered as a benchmark (Palmitoyl-KTTKS)”, which “cell proliferation / number of cells” value [1] is on record?
**A.** unchanged

**Q.** And the “COLLAGEN I Mean, percent of negative control” value (“COLLAGEN I Mean, percent” below) ([2]; 2 ppm)?
**A.** +5%

**Q.** And the “COLLAGEN I Mean, percent” value ([2]; 4 ppm)?
**A.** +49%

**Q.** And the “COLLAGEN I Mean, percent” value ([2]; 4 ppm, listed as Pal-KTTKS)?
**A.** +49%

**Q.** What about the “COLLAGEN I Mean, percent” value ([2]; 6 ppm) of the same compound?
**A.** +111%

**Q.** And the “COLLAGEN I Mean, percent” value ([2]; 6 ppm, listed as Pal-KTTKS)?
**A.** +111%

**Q.** And the “COLLAGEN I Mean, percent” value ([2]; 8 ppm)?
**A.** +144%

**Q.** And the “COLLAGEN I Mean, percent” value ([2]; 8 ppm, listed as Pal-KTTKS)?
**A.** +144%

**Q.** And the “FIBRONECTIN Mean, percent of negative control” value ([3]; 2 ppm)?
**A.** +20%

**Q.** And the “FIBRONECTIN Mean, percent of negative control” value ([3]; 2 ppm, listed as Pal KTRKS)?
**A.** probably active

**Q.** How did the “COLLAGEN I Mean, percent” value ([2]; 1 ppm) turn out when Pal-Lys-Thr-OH [Pal KT] was run?
**A.** +21%

**Q.** What does the source list for “TGF-beta: positive control for collagen I and Fibronectin studies”?
**A.** cell proliferation / number of cells [1]: significant increase of cell proliferation; COLLAGEN I Mean, percent of negative control ([2]; 10 ppb): +95%; COLLAGEN I Mean, percent of negative control ([2]; 10 ppb, listed as TGF-b1): 95%; FIBRONECTIN Mean, percent of negative control ([3]; 10 ppb): +69%; FIBRONECTIN Mean, percent of negative control ([3]; 10 ppb, listed as TGF-b1): 69%
